Entries after “also recorded” stand apart in the source; their conditions may differ.
Legend:
[1] = tested on: HCT116, DLD1, HT29 colon cancer cells; assay: growth of colon cancer cells, MTS assay; type: cell-based
Procedure: (§1) FIGS. 3A-3H. Anticancer effect of herbacetin. (a) The effect of herbacetin on ODC activity in colon cancer cell lines was measured as the release of CO2 from L-[1-C^14] ornithine. […] (b) The effect of herbacetin and DFMO on the growth of colon cancer cells and (c) TPA-induced JB6 cell growth was compared. Cells were incubated for 72 h and growth was estimated using the MTS assay. (d) The effect of herbacetin on anchorage independent HCT116 colon cancer cell growth and (e) TPA-induced JB6 cell transformation was assessed. Cells were incubated for 2 weeks and then colonies were counted using a microscope and the Image-Pro PLUS (v.6) computer software program. The effect of herbacetin on AP-1 reporter activity in (f) HCT116 colon cancer cells and (g) TPA-induced AP-1 reporter activity in JB6 mouse epidermal cells was analyzed using the substrates included in the reporter assay system. Data are represented as means±S.D. of triplicate values from three independent experiments and the asterisk (*) indicates a significant (p<0.05) effect of herbacetin or DFMO compared to untreated or TPA-treated controls. (h) The effect of herbacetin on the phosphorylation of ERK1 and ERK2 in HCT116 colon cancer cells was determined by Western blotting. Similar results were observed from two independent experiments.

[2] = tested on: activator protein-1 (AP-1); assay: TPA-induced AP-1 reporter activity in JB6 cells; type: cell-based, mouse; details: JB6 cells pre-treated 2 h, then TPA 48 h
Procedure: as §1, with “Data are represented as means±S.D. of triplicate values from three independent experiments and the asterisk (*) indicates a significant (p<0.05) effect of herbacetin or DFMO compared to untreated or TPA-treated controls.” left out, “Similar results were observed from two independent experiments.” left out
(§2) We determined whether herbacetin affected the reporter activity of the MAP kinase target transcription factor, activator protein-1 (AP-1), in HCT116 cells or JB6 cells stimulated with TPA. […] AP-1 reporter activity was then measured (FIG. 3f, g) and the activity was attenuated by herbacetin in colon cancer cells and in TPA-activated JB6 cells. […]

ERK1/2, p90^RSK = assay: Western blotting of ERK1/2 and p90RSK phosphorylation in HCT116 cells; type: cell-based
Procedure: as §1, with “Data are represented as means±S.D. of triplicate values from three independent experiments and the asterisk (*) indicates a significant (p<0.05) effect of herbacetin or DFMO compared to untreated or TPA-treated controls.” left out, “Similar results were observed from two independent experiments.” left out
as §2

[3] = tested on: SKH-1 hairless mice, solar UV-induced skin tumors; assay: solar UV induced-skin tumor mouse model; type: in vivo; details: herbacetin 100 or 500 nmol topical for 7 weeks; relative to vehicle group
Procedure: Mice were exposed to solar-UV (48 kJ/UVA, 2.9 kJ/UVB) 3 times weekly for 12 weeks. The solar UV treatment was discontinued and at twenty weeks later, mice were topically treated with 100 or 500 nmol of herbacetin (in acetone) for an additional 7 weeks. Mice (8-9 weeks old) were divided into three groups: 1) solar UV+vehicle group (n=4); 2) solar UV+100 nmol of herbacetin (n=4) group; 3) solar UV+500 nmol of herbacetin (n=4). The volume of tumors per mouse was recorded weekly.

[4] = tested on: HCT116 cells (shMock, shODC, shODC+ODC); assay: growth of shMock, shODC and shODC+ODC HCT116 cells; type: cell-based
Procedure: FIGS. 4A-4B. The anti-cancer activity exerted by herbacetin is dependent on ODC expression. (a) The effect of herbacetin on HCT116 colon cancer cell growth was assessed in shMock, shODC and shODC cells with rescued ODC expression. Cells were incubated for 72 h and growth was determined by MTS assay. (b) The effect of herbacetin on anchorage independent HCT116 colon cancer cell growth was assessed inshMock, shODC and shODC cells with rescued ODC expression. Cells were incubated in 0.3% agar for 3 weeks and colonies were counted using a microscope and the Image-Pro PLUS (v.6) computer software program. Data are represented as means±S.D. of triplicate values. The asterisk (*) indicates a significant effect (p<0.05) of herbacetin or DFMO compared to untreated controls.
The lentiviral expression vectors, including pLKO.1-shODC and packaging vectors, including pMD2.0G and psPAX, were purchased from Addgene Inc. (Cambridge, Mass.). […] The transfection medium was changed at 4 h after transfection and then cells were cultured for 36 h. The viral particles were harvested by filtration using a […] syringe filter and then combined with 8 μg/ml of polybrane (Millipore, Billerica, Mass.) and infected into 60% confluent HCT-116 cells overnight. The cell culture medium was replaced with fresh complete growth medium for 24 h and then cells were selected with 1.5 μg/ml of puromycine for 36 h. The selected cells were used for experiments.

[5] = tested on: JB6 mouse epidermal skin cells; assay: proliferation and colony formation of JB6 mouse epidermal skin cells; type: cell-based; details: preliminary data
Procedure: as §1

[6] = tested on: SKH-1 hairless mice, DMBA/TPA-induced skin tumors; assay: DMBA/TPA two-stage skin carcinogenesis mouse model, 20 weeks; type: in vivo
Description: Hairless SKH:HR-1-hrBr (SKH-1) mice were obtained from Charles River and were maintained under “specific pathogen-free” conditions following the guidelines established by the University of Minnesota Institutional Animal Care and Use Committee. Mice (8˜9 weeks old) were divided into five groups: 1) DMBA+vehicle group (n=20); 2) DMBA-initiated (200 nmol) and TPA-promoted group (17 nmol; n=20); 3) DMBA/TPA+100 nmol of herbacetin (n=20) group; 4) DMBA/TPA+500 nmol of herbacetin group (n=20); 5) DMBA+500 nmol of herbacetin group (n=20). One week after initiation, 17 nmol of TPA in acetone was topically applied twice weekly until the termination of the experiment at 20 weeks. When used, each dose of herbacetin was dissolved in 0.2 ml of 10% H2O in acetone and then topically applied to dorsal mouse skin at 30 min before TPA treatment. The number and volume of tumors per mouse was recorded weekly. The results are expressed as the percent of mice with tumors (incidence), average tumor volumes (size) and average number of tumors per mouse (multiplicity).

[7] = tested on: SKH-1 hairless mice, DMBA/TPA; assay: TPA-induced skin cancer prevention study, 30 weeks (Example 2); type: in vivo, mouse
Procedure: For the effect of herbacetin on preventing TPA-induced skin cancer, SKH-1 hairless mice were divided into 5 groups of 26-30 mice/group. All mice were initiated with 200 nmol DMBA applied topically on the dorsal surface. Two weeks later, TPA (17 nmol) was applied topically on the dorsal surface twice a week for a total of 30 weeks. Four groups of mice were treated with herbacetin (20, 100, 200, or 500 nmol) 30 min before application of TPA.

[8] = herbacetin 100 or 500 nmol topical before TPA, relative to TPA-treated group

O=c1c(O)c(-c2ccc(O)cc2)oc2c(O)c(O)cc(O)c12 [herbacetin, 3,5,7,8,4′-Pentahydroxyflavone]
inhibitory effect on growth of colon cancer cell lines ([1]; 72 h, MTS, HCT116, DLD1, HT29): greatest inhibitory effect on colon cancer cells that expressed higher levels of ODC
proliferation and anchorage independent cell growth of several colon cancer cell lines ([1]; preliminary data): decrease proliferation and anchorage independent cell growth
AP-1 reporter activity [2]: attenuated
phosphorylation of ERK1/2 and p90^RSK (ERK1/2, p90^RSK): suppressed phosphorylation
size (volume) of solar UV-induced skin tumors [3]: significantly decreased
inhibitory effect on anchorage-dependent and -independent growth of shODC cells ([4]; shODC vs shMock HCT116 cells): resistance to herbacetin; also recorded: resistant
sensitivity of shODC cells with rescued ODC expression ([4]; shODC+ODC HCT116 cells): restored; also recorded: regained sensitivity
inhibition of colony growth after re-introduction of ODC into sh-ODC knockdown cells ([4]; shODC+ODC HCT116 cells, soft agar): restored sensitivity
cell proliferation and anchorage independent colony formation [5]: decrease cell proliferation and anchorage independent colony formation
tumors in herbacetin only (no TPA) group ([6]; DMBA + 500 nmol herbacetin, no TPA): No tumors were observed
ODC activity in skin tumors ([6]; TPA-induced skin tumor tissue): significantly inhibited ODC activity
number of skin tumors [6, 8]: strongly suppressed
volume of skin tumors [6, 8]: strongly suppressed
ODC downstream proteins such as ERK and RSK in skin tumors ([6]; immunoblot of TPA-induced skin tumors): strongly suppressed
tumor growth induced by TPA ([7]; herbacetin 20, 100, 200 or 500 nmol 30 min before TPA, 30 weeks): decreased tumor growth
mice developing papillomas (incidence) ([7]; vs untreated control mice): Fewer mice developed papillomas
number of papillomas ([7]; vs untreated control mice): fewer papillomas (dose-dependent)
tumor size ([7]; vs untreated controls): significantly smaller tumors
